In US5279956A, “Activated protein C polypeptides and anti-peptide antibodies, diagnostic methods and systems for inhibiting activated protein C” (The Scripps Research Institute, priority 1991, dated 1994):
No end group written: not given here.

Biological target: T1, APC (Homo sapiens, UniProt P04070)
T1 construct: begins at amino acid residue position 158 and ends at 419; The light chain is 155 amino acid residues in length; tissue Factor IX concentrate from Immuno AG, Vienna; thrombin from Enzyme Research Laboratories
Experiment: Activated partial thromboplastin time (APTT) coagulation assay of APC anticoagulant activity
Assay type: biochemical
Conditions: APTT assay in the presence of APC
Procedure: The effect of the synthetic peptides on APC anticoagulant activity were determined using the APTT assay in the presence of either normal citrate anticoagulated plasma (NHP) or protein S depleted plasma (PSDP). The assays were performed essentially as described. See Marlar et al., Blood, 59:1067-1072 […]; Suzuki et al., J. Biol. Chem., 258:163-168 (1983); Gruber et al., Blood, 73:639-642 (1989); Ohlin et al., Biochem., 29:644-651 (1990). NHP was purchased from George King Bio-Medical, Inc. (Overland Park, Kans.). PSDP was prepared from a normal human citrate-anticoagulated plasma pool from ten healthy donors. Protein S was immunodepleted from the NHP by immunoaffinity chromatography of NHP over an anti-protein S antibody column to form PSDP. The anti-protein S antibody column was prepared by coupling 100 mg of a monoclonal, high-affinity, calcium-independent anti-PS antibody, designated S7, to 30 ml of CNBr-activated Sepharose 4B (Pharmacia) as described in Example 2c1). Residual total protein S content in the resultant PSDP was less than 0.1% protein S as determined by quantitative immunoblotting, by solid-phase ELISA for total protein S and by electroimmunoassay.
For the APTT assay, APC was prepared as described in Example 2c2). The specific anticoagulant activity of APC was determined to be 250 Units/mg. The concentration of the APC used in the assay was initially optimized with respect to the sensitivity of the assay towards APC-induced prolongation of clotting time compared to clotting time without APC.
Once the optimal concentration of APC was determined, peptides from Table 2 were then separately admixed for a final concentration of 500 μM with 10 nM APC in 100 μl of TBS-BSA at pH 7.4 to form peptide-APC admixtures. The resulting admixtures were maintained for seven minutes at 37° C. Separate aliquots of peptides maintained under the same conditions in the absence of APC served as controls for the inhibitory effect of synthetic peptides on APC anticoagulant activity. After the maintenance period, 100 μl of NHP and 100 μl APTT-reagent Thrombosil (Ortho Diagnostics, Raritan, N.J.) were admixed into each peptide admixture and maintained for 200 seconds at 37° C. to form a pre-coagulation admixture. In some experiments, PSDP was used in the place of NHP to determine the effect of Protein S on the assay system. Coagulation was then initiated by the admixture of 100 μl of 30 mM CaCl2 in TBS prewarmed to 37° C. to each of the pre-coagulation admixtures. The time for clot formation was measured by an Electra 700 Automatic Coagulation Timer (Medical Laboratory Automation, Inc., Mount Vernon, N.Y.). Each peptide's effect was determined in duplicate.
Additional assays were performed to compare the specificity of the inhibitory effect of peptide-(390-404) on APC anticoagulant activity. Both APTT and Xa-1-stage assays were performed with peptide-(390-404) and with the same peptide synthesized in the reverse order, peptide-(404-390), at concentrations of the peptides ranging from 0 μM to 40 μM. In APTT assays performed as described above in the presence of NHP, APC was used at a concentration of 2.5 nM. For APTT assays in the presence of PSDP, APC was used at a concentration of 5 nM. […]
Once the optimal concentration of APC was determined, anti-(390-404) was separately admixed ranging in concentration from 0.0 to 240 nM with APC in 200 μl of TBS-BSA and 30 mM CaCl2 at pH 7.4 to form an anti-(390-404)-APC immunoreaction admixture pre-maintenance solution. […]

T1 sequence (P04070 212-461): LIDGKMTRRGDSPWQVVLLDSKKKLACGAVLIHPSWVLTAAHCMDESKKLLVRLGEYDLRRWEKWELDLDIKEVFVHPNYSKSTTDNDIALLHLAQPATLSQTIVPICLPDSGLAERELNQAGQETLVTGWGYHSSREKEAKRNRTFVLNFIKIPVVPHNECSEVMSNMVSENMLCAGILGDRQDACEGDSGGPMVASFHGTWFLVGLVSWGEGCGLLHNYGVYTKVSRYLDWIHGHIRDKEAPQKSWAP
T1 sequence (P04070 43-197): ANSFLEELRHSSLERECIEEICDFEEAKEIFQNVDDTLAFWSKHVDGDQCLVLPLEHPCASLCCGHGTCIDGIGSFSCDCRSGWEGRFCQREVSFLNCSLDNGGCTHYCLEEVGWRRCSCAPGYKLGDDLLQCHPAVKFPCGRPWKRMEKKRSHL

## KRNRTFVLNFIKIPV-NH2 [peptide-(311-325), KRNRTFVLNFIKIPV]
  IC50: 20 µM
  IC90: 50 µM
